Here are results for 2 compounds from patent US10716759B2, “Rehydration of micronized tecovirimat monohydrate” (SIGA TECHNOLOGIES, INC., priority 2013, dated 2020).

The conditions of data set [1]: intravenous administration; cited from earlier work.
The conditions of data set [2]: in vivo; cited from earlier work.
A further data set relates to authentic variola virus. Particulars: cited from earlier work.
Data set [3] in a line: Moisture content by Karl Fischer method. The class given is physicochemical. The note with it: Tray rehydration (18 hours bench top, 2 hours 25° C./60% RH or 2 hours 40° C./75% RH).

Regarding `Nc1ccn(C[C@@H](CO)OCP(=O)(O)O)c(=O)n1` [Cidofovir, (S)-1-(3-hydroxy-2-phosphonylmethoxypropyl)cytosine], the Nephrotoxicity result in data set [1] is on record as “dose-limiting nephrotoxicity”. In addition, the Bioavailability entry in data set [2] is given as “poorly bioavailable”. The Variola virus replication entry with authentic variola virus is “inhibit authentic variola virus replication”.
In the case of `O=C(NN1C(=O)[C@@H]2[C@@H]3C=C[C@@H]([C@H]4C[C@@H]34)[C@@H]2C1=O)c1ccc(C(F)(F)F)cc1` [ST-246, N-[(3aR,4R,4aR,5aS,6S,6aS)-3,3a,4,4a,5,5a,6,6a-octahydro-1,3-dioxo-4,6-ethenocycloprop[f]isoindol-2(1H)-yl]-4-(trifluoromethyl)-benzamide], in data set [3], the “Moisture (% w/w KF)” value is roughly 4.5 % w/w.
